One substance from patent US20230201151A1, “FORMULATIONS AND METHODS FOR TREATING ACUTE RESPIRATORY DISTRESS SYNDROME, ASTHMA, OR ALLERGIC RHINITIS” (UNIVERSITY OF FLORIDA RESEARCH FOUNDATION, INC., priority 2020, published 2023) can be followed below.

The subject of one test is ENaC. Briefly: Benzamil-sensitive Isc (ENaC activity) in differentiated HBECs, Ussing chamber. The test is classed as cell-based, human. How it is done: High individual variation in benzamil-sensitive current and TEER in HBECs. In an Ussing chamber-based experimental design, basal short-circuit current (Isc) and transepithelial electrical resistance (TEER) were recorded in differentiated HBECs from two lung donors that were grown on snapwells at an air-liquid interface for 28 to 35 days. Benzamil, a potent ENaC blocker was used to determine ENaC activity by calculating benzamil-sensitive Isc from changes in Isc that occur 15 minutes after adding 6 μM benzamil to the apical side of cells. […] Therefore, normalized data were used for all subsequent experiments for statistical analyses relating to FIGS. 13-18.
Basal treatment with cytokines [IL-13 (Abcam), IL-4 (PeproTech), TNF-α, IFN-γ and TGF-β1 (R&D Systems)] diluted in ALI medium started as early as day 14 post differentiation. Individual cytokines or cytokine cocktails were added to the culture medium at the desired concentrations and cells were incubated with the cytokines for a maximum of 16 days. ALI medium containing cytokines was changed every two days. Age-matched HBECs were assigned to the following treatment groups:
II Time-dependent studies: These studies were done using a concentration that ensured maximum inhibition of benzamil-sensitive Isc and TEER. HBECs were treated with respective cytokines for 2, 4, 6, 8, 10, 12, 14, or 16 days. IFN-γ, TNF-α or TGF-β1 at 1 ng/mL, IL-13 at 20 ng/mL and IL-4 at 2 ng/mL were used.
III Cytokine cocktails: were prepared using IFN-γ and TNF-α at 0.05, 0.5, 2.5, 5 and 10 ng/mL while TNF-α, IFN-γ and TGF-β1 at 1 ng/mL for each of the cytokines was added to the culture media for 7 days.
Ussing chamber experiments: Snapwells with differentiated HBECs that were incubated with cytokines or age-matched HBECs without cytokine exposure were mounted in Ussing chambers (Physiologic Instruments), and cells were either bathed in isotonic ringer solution containing 113.8 mM Na^+, 93.6 mM Cl^−, 25 mM HCO3^−, 5.2 mM K^+, 2.4 mM HPO4^−, 0.4 mM H2PO4^−, 1.2 mM Mg^2+, 1.2 mM Ca^2+, and 75 mM mannitol, or in AA-EC01. Glucose (5 mM) was added to the basal side, and chambers were bubbled with 95% O2 and 5% CO2 at 37° C. AA-EC01 contained 8 mM lysine, 8 mM tryptophan, 8 mM arginine, 8 mM glutamine, and 1.2 mM tyrosine, and AANC contained 8 mM leucine, 8 mM cysteine, 8 mM isoleucine, 8 mM aspartic acid and 8 mM glutamate (Ajinomoto), both diluted in an electrolyte solution containing 113.8 mM Na^t, 93.6 mM Cl^−, 25 mM HCO3^−, 5.2 mM K^+, 2.4 mM HPO4^−, 0.4 mM H2PO4^−, 1.2 mM Mg′, 1.2 mM Ca^2+ and 40 mM mannitol at pH 7.4 and 300 mOsm. Cell cultures were allowed to equilibrate in the Ussing chambers for 30 minutes while continuously voltage clamped to 0 mV. Basal short circuit current (Isc) and transepithelial electrical resistance (TEER) were recorded at 30-second intervals, and benzamil-sensitive Isc was calculated from the difference of basal Isc recorded after 30 minutes and Isc measured at 15 minutes after adding 6 μM of benzamil (ThermoFisher) to the apical side.
Statistical analysis: Results are presented as mean±standard error of mean (SEM). Analyses were performed with OriginPro 2018 software package. For each treatment group, values were tested for normal distribution using the Shapiro-Wilk normality test. […] The values were normalized to controls within the group, and data were pooled for comparison between groups. Kruskal-Wallis test was used for comparing the overall effect of ringer, AA-EC01 and AANC on benzamil-sensitive Isc and TEER, and Mann Whitney U test was used for pairwise comparison within the group and for comparison between basal values for each cytokine at zero ng/mL or day zero with each concentration and time period studied. P<0.05 was considered significant, and NS indicates not significant.

In the next test the test system is HBEC. Briefly: Barrier function in IL-13-treated differentiated HBEC, Examples 1-2. It counts as cell-based, human. The settings on record: IL-13 20 ng/mL. The protocol: Experimental design: IL-13 treatment with 20 ng/mL media for 4 and 14 days. Ussing chamber experiment in Basic Ringer (5 mM glucose in basolateral side).
To investigate the importance of ENaC during inflammation and explore how its activity is modulated during the evolution of ARDS, the present inventors used primary cultures of human bronchial epithelial cells (HBEC) harvested from normal human lungs, which had been differentiated in vitro in an air-media interphase (air on the apical side and media on the basolateral side) for 30 days. Differentiated HBEC were used for electrophysiology experiments to evaluate the effect of IL-13 on these cells. […] Similarly, IL-13 (20 ng/mL) caused a maximum reduction in barrier function on day 8 of exposure.

Turning to “IL-13: Th2 cytokine (Abcam) added to HBEC culture medium”, the “benzamil-sensitive Isc, normalized to control” value in the test on ENaC (IL-13 0.1 ng/mL, 14 days) is on record as 50.9±9.6%. The “day by which benzamil-sensitive Isc was completely suppressed” value in the test on ENaC (IL-13 20 ng/mL, 16-day incubation) is at most 8 days. The “benzamil-sensitive Isc, of baseline value” in the test with ENaC (IL-13 20 ng/mL, day 2) was 25.0±5%. Also, the “concentration at which benzamil-sensitive Isc was completely abolished” value in the test on ENaC (IL-13, 14 days) came to 8 ng/mL. For the same substance, the “day of maximum reduction in barrier function” value in the test with HBEC came out at 8 days.
